In PubChem BioAssay AID1845203 (Molecular Pharmacology Branch, DTP, NCI, 2023):

Tested on: G-401 tumor spheroids, viability % test/control
Assay: Anticancer human tumor G-401 cell line growth inhibition;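 further: spheroids exposed to compound for 7 days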;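 on viability, T/C: 100% = DMSO vehicle-treated spheroids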
Details: spheroids with HUVEC and MSC; for IC50: curve of first compound; for viability, T/C: stronger effect = lower value
Source text: Multicellular complex tumor spheroid response to DNA repair inhibitors in combination with DNA-damaging drugs
This study explores the anticancer activities of DNA-damaging drugs and inhibitors of DNA damage repair, both as single agents and in combinations. Complex tumor spheroids comprised of malignant cells, endothelial cells and mesenchymal stem cells served as an in vitro model for human solid tumors. This model system incorporates physiologically relevant features and patient-derived or established malignant cell lines with clinically relevant genetic alterations from many tumor types. Twenty-six patient-derived or established malignant cell lines were evaluated representing sarcoma, melanoma, small cell lung cancer (SCLC), non-small cell lung cancer (NSCLC), as well as bladder, ovarian and pancreatic cancers. The concentration ranges selected for each drug and investigational agent were based upon clinically achievable concentrations if the clinical Cmax of the agent was known.
Compounds. The drugs and compounds olaparib (NSC753686), talazoparib (NSC767125), berzosertib (NSC777718), elimusertib (NSC800525), nedisertib (NSC802822), VX-984 (NSC792969), AZD-1390 (NSC803789), temozolomide (NSC362856), topotecan (NSC609699), trabectedin (NSC813783), staurosporine (NSC755774), and gemcitabine (NSC613327) were obtained from the National Cancer Institute (NCI) Developmental Therapeutics Program Chemical Repository. The FDA-approved anticancer drug set is available from the Developmental Therapeutics Program at https://dtp.cancer.gov/organization/dscb/obtaining/available_plates.htm. […] The stock solutions were prepared in dimethyl sulfoxide (DMSO, Sigma-Aldrich, St. Louis, MO, cat. D2650) at 400-fold the tested concentration and stored at -70 degrees C. Prior to their use, the stock solutions were diluted in fresh medium and the final DMSO concentration in the assay was 0.25% (v/v). All drugs and investigational agents were tested over a range starting from a high concentration at or near the clinical Cmax and decreasing in half-log increments. If the clinical Cmax for an agent had not been determined, the highest concentration tested was 10 microM.
Cell Lines. The patient-derived cancer cell (PDC) lines: 156681-154-R-J1-PDC, 283228-195-R-J1-PDC, 287954-098-R-J1-PDC, 292921-168-R-J2-PDC, 349418-098-R-PDC, 425362-245-T-J1-PDC, 556581-035-R-J1-PDC, and BL0293-F563-PDC were received from the NCI Patient-Derived Models Repository (PDMR, https://pdmr.cancer.gov). The established cell lines HS-SY-2 (RRID:CVCL_8719), MPNST, and SYO-1 (RRID:CVCL_7146) were obtained from the Sloan Kettering Institute. The alveolar soft parts sarcoma cell line ASPS-1 (RRID:CVCL_S738) was established at the NCI and grown from internal seed stocks. The following established cell lines were purchased from the American Type Culture Collection (ATCC, Manassas, VA): G-401 (ATCC, cat. CRL-1441, RRID:CVCL_0270), SW982 (ATCC, cat. HTB-93, RRID:CVCL_1734), VA-ES-BJ (ATCC, cat. CRL-2138, RRID:CVCL_1785), NCI-H719 (ATCC, cat. CRL-5837, RRID:CVCL_1582), NCI-H196 (ATCC, cat. CRL-5823, RRID:CVCL_1509), NCI-H841 (ATCC, cat. CRL-5845, RRID:CVCL_1595), NCI-H1618 (ATCC, cat. CRL-5879, RRID:CVCL_1480), NCI-H1876 (ATCC, cat. CRL-5902, RRID:CVCL_1503), DMS 114 (ATCC, cat. CRL-2066; RRID:CVCL_1174), NCI-H211 (ATCC, cat. CRL-5824; RRID:CVCL_1529), and SW 1271 (ATCC, cat. CRL-2177, RRID:CVCL_1716). The small cell lung cancer cell line COR-L88 was purchased from Sigma-Aldrich (cat. 92031917-1VL, RRID:CVCL_1141). The non-small cell lung cancer cell lines NCI-H226 (RRID:CVCL_1544) and NCI-H322M (RRID:CVCL_1557) were established at the NCI and grown from internal seed stocks. Pooled donor human umbilical vein endothelial cells (HUVEC, Lonza, cat. CC-2519) and human mesenchymal stem cells (hMSC, Lonza, cat. PT-2501) were purchased from Lonza (Walkersville, MD).
Cell Culture. All cells were maintained in an incubator at 37 degrees C and 5% CO2 with 95% humidity. […]

Compound: [2H]c1nc(C)nc([2H])c1-c1cc(NC[C@@H](C)c2cccc3c(C(=O)NC)ccnc23)ncn1 + Cn1nnc2c(C(N)=O)ncn2c1=O
- IC50 (second compound 1 µM): > 10 µM
- IC50 (second compound 3.16 µM): > 10 µM
- IC50 (second compound 10 µM): > 10 µM
- IC50 (second compound 31.6 µM): > 10 µM
- IC50 (second compound 100 µM): > 10 µM
- viability, T/C (second compound 1 µM, first compound 0.0316 µM): 101%
- viability, T/C (second compound 1 µM, first compound 0.1 µM): 106%
- viability, T/C (second compound 1 µM, first compound 0.316 µM): 110%
- viability, T/C (second compound 1 µM, first compound 1 µM): 102%
- viability, T/C (second compound 1 µM, first compound 3.16 µM): 107%
- viability, T/C (second compound 1 µM, first compound 10 µM): 103%
- viability, T/C (second compound 3.16 µM, first compound 0.0316 µM): 105%
- viability, T/C (second compound 3.16 µM, first compound 0.1 µM): 99.3%
- viability, T/C (second compound 3.16 µM, first compound 0.316 µM): 101%
- viability, T/C (second compound 3.16 µM, first compound 1 µM): 99.8%
- viability, T/C (second compound 3.16 µM, first compound 3.16 µM): 105%
- viability, T/C (second compound 3.16 µM, first compound 10 µM): 103%
- viability, T/C (second compound 10 µM, first compound 0.0316 µM): 93%
- viability, T/C (second compound 10 µM, first compound 0.1 µM): 99.6%
- viability, T/C (second compound 10 µM, first compound 0.316 µM): 101%
- viability, T/C (second compound 10 µM, first compound 1 µM): 96%
- viability, T/C (second compound 10 µM, first compound 3.16 µM): 108%
- viability, T/C (second compound 10 µM, first compound 10 µM): 94%
- viability, T/C (second compound 31.6 µM, first compound 0.0316 µM): 96.3%
- viability, T/C (second compound 31.6 µM, first compound 0.1 µM): 101%
- viability, T/C (second compound 31.6 µM, first compound 0.316 µM): 99.7%
- viability, T/C (second compound 31.6 µM, first compound 1 µM): 100%
- viability, T/C (second compound 31.6 µM, first compound 3.16 µM): 94.2%
- viability, T/C (second compound 31.6 µM, first compound 10 µM): 97.4%
- viability, T/C (second compound 100 µM, first compound 0.0316 µM): 95.9%
- viability, T/C (second compound 100 µM, first compound 0.1 µM): 94.8%
- viability, T/C (second compound 100 µM, first compound 0.316 µM): 105%
- viability, T/C (second compound 100 µM, first compound 1 µM): 92.8%
- viability, T/C (second compound 100 µM, first compound 3.16 µM): 89.6%
- viability, T/C (second compound 100 µM, first compound 10 µM): 86.5%

Compound: Cc1cc(C)c(CNC(=O)c2cc(-c3ccc(CN4CCOCC4)cc3)cc3c2cnn3C2CCCC2)c(=O)[nH]1 + COc1cc2c(cc1O)CCNC21CSC2c3c(OC(C)=O)c(C)c4c(c3C(COC1=O)N1C(O)C3Cc5cc(C)c(OC)c(O)c5C(C21)N3C)OCO4
- IC50 (second compound 30 pM): > 10 µM
- IC50 (second compound 94.9 pM): 7.07 µM
- IC50 (second compound 0.0003 µM): < 0.0316 µM
- IC50 (second compound 0.000949 µM): < 0.0316 µM
- IC50 (second compound 0.003 µM): < 0.0316 µM
- viability, T/C (second compound 30 pM, first compound 0.0316 µM): 107%
- viability, T/C (second compound 30 pM, first compound 0.1 µM): 109%
- viability, T/C (second compound 30 pM, first compound 0.316 µM): 111%
- viability, T/C (second compound 30 pM, first compound 1 µM): 119%
- viability, T/C (second compound 30 pM, first compound 3.16 µM): 97.7%
- viability, T/C (second compound 30 pM, first compound 10 µM): 53.9%
- viability, T/C (second compound 94.9 pM, first compound 0.0316 µM): 93.3%
- viability, T/C (second compound 94.9 pM, first compound 0.1 µM): 110%
- viability, T/C (second compound 94.9 pM, first compound 0.316 µM): 106%
- viability, T/C (second compound 94.9 pM, first compound 1 µM): 107%
- viability, T/C (second compound 94.9 pM, first compound 3.16 µM): 81%
- viability, T/C (second compound 94.9 pM, first compound 10 µM): 36.6%
- viability, T/C (second compound 0.0003 µM, first compound 0.0316 µM): 43.3%
- viability, T/C (second compound 0.0003 µM, first compound 0.1 µM): 46.5%
- viability, T/C (second compound 0.0003 µM, first compound 0.316 µM): 37.9%
- viability, T/C (second compound 0.0003 µM, first compound 1 µM): 30%
- viability, T/C (second compound 0.0003 µM, first compound 3.16 µM): 25.2%
- viability, T/C (second compound 0.0003 µM, first compound 10 µM): 17.4%
- viability, T/C (second compound 0.000949 µM, first compound 0.0316 µM): 9.71%
- viability, T/C (second compound 0.000949 µM, first compound 0.1 µM): 9.04%
- viability, T/C (second compound 0.000949 µM, first compound 0.316 µM): 6.87%
- viability, T/C (second compound 0.000949 µM, first compound 1 µM): 6.92%
- viability, T/C (second compound 0.000949 µM, first compound 3.16 µM): 6.27%
- viability, T/C (second compound 0.000949 µM, first compound 10 µM): 4.18%
- viability, T/C (second compound 0.003 µM, first compound 0.0316 µM): 11.6%
- viability, T/C (second compound 0.003 µM, first compound 0.1 µM): 0.13%
- viability, T/C (second compound 0.003 µM, first compound 0.316 µM): 0.27%
- viability, T/C (second compound 0.003 µM, first compound 1 µM): 0.15%
- viability, T/C (second compound 0.003 µM, first compound 3.16 µM): 0.54%
- viability, T/C (second compound 0.003 µM, first compound 10 µM): 0.2%
